In US8178506B2, “Oligomeric compounds and compositions for use in modulation of small non-coding RNAs” (Regulus Therapeutics Inc., priority 2003, dated 2012):
“Also recorded” adds a separate entry of the source.

Key:
mir-23b miRNA [1] = test: Northern blot of mir-23b in kidney of ob/ob mice; format: in vivo, mouse; settings: twice weekly at 25 mg/kg, saline = 100%
Description: In addition, Northern blot analyses were performed to quantitate the expression of mir-23b in kidney samples of ob/ob mice treated with oligomeric compounds of the present invention. To detect the mir-23b target, a target-specific DNA oligonucleotide probe with the sequence […] (SEQ ID NO: 307) was synthesized by IDT (Coralville, Iowa). The oligo probes were 5′ end-labeled with T4 polynucleotide kinase with (γ-^32P) ATP (Promega). The mir-23b specific DNA oligonucleotide probe was used to detect expression levels of the mir-23b miRNA in ob/ob mice treated (twice weekly at 25 mg/kg) with ISIS Numbers 327889, the uniform 2′-MOE oligomeric compound, or ISIS Number 340925, the 5-10-8 gapmer compound, both targeted to mir-23b, versus saline treated animals or animals treated with a control oligomeric compound, ISIS Number 116847 ([…]; SEQ ID NO: 844), a uniform 5-10-52′-MOE gapmer targeting an unrelated gene, PTEN. Expression levels were normalized against the U6 RNA and the expression levels of saline treated animals were set at 100%. […] In kidney samples from mice treated with the gapmer oligomeric compound targeting mir-23b, ISIS Number 340925, a 41% reduction in in vivo expression levels of the mir-23b miRNA was observed.

mir-23b miRNA [2] = test: pGL3-mir-23b sensor luciferase assay in HeLa cells; format: cell-based, human; settings: HeLa, 1.3-, 5- or 20 nM
Excerpt: In order to assess the ability of miRNAs to bind predicted miRNA binding sites and regulate the expression of the luciferase reporter, in some embodiments, expression systems based on the pGL3-Control (Promega Corp., Madison Wis.) reporter vector and comprising either a mir-15a, mir-21, or a mir-23b miRNA binding site were developed and used in transient transfections of HeLa cells to determine whether the endogenous mir-15a, mir-21, or mir-23b miRNAs, respectively, could repress luciferase reporter gene expression.
The pGL3-mir-23b sensor plasmid was created by cloning the sequence ([…]; SEQ ID NO: 307), representing a sequence complementary to the mir-23b miRNA, into the Xba site of the pGL3-Control plasmid, placing the potential miRNA-binding site in the 3′UTR of the luciferase reporter. This reporter plasmid was used to transfect HeLa cells and it was observed that the endogenous mir-23b miRNA was able to inhibit luciferase expression from the pGL3-mir-23b sensor plasmid. Thus, to further evaluate the ability of the mir-23b miRNA to bind this target site encoded by the pGL3-mir-23b sensor plasmid, and to assess the ability of oligomeric compounds to interfere with mir-23b-mediated silencing, pGL3-mir-23b sensor-expressing HeLa cells were treated with varying concentrations (1.3-, 5- or 20 nM) of the following oligomeric compounds: ISIS Number 327889 (SEQ ID NO: 307), a phosphorothioate uniform 2′-MOE oligomeric compound, and ISIS Number 340925 (SEQ ID NO: 307), a 2′-MOE 5-10-8 gapmer oligomeric compound, both targeting mir-23b. The uniform 2′-MOE phosphorothioate oligomeric compound ISIS Number 327924 (SEQ ID NO: 342) targeting an unrelated miRNA (mir-129-2) was used as a negative control. The data are the average of three trials, and are presented in Table 43 as relative luciferase activity (normalized to pRL-CMV luciferase plasmid only, not treated with oligomeric compound).

[3] = test system: preadipocytes / differentiating adipocytes; test: Adipocyte differentiation assay, markers taken together; format: cell-based, human; settings: preadipocytes, 250 nM, day nine post-transfection, relative to ISIS-29848
DIO mice = test: Diet-induced obesity (DIO) mice; format: in vivo
Description: As described, supra, the C57BL/6 mouse strain is reported to be susceptible to hyperlipidemia-induced atherosclerotic plaque formation, and when these mice are fed a high-fat diet, they develop diet-induced obesity (DIO). Accordingly, the DIO mouse model is useful for the investigation of obesity and development of agents designed to treat these conditions. In one embodiment of the present invention, oligomeric compounds targeting miRNAs were tested in the DIO model. Normal C57/BL6 male mice were fed a high fat diet (40% fat, 41% carbohydrate, 18% protein) for 12 weeks before the study began. DIO mice were then randomized by weight and insulin values. Initial body fat composition was determined by Dual X-ray Absorptiometry (DEXA) Scan. DIO mice were then subcutaneously injected with oligomeric compounds of the invention at a dose of 25 mg/kg, twice weekly. DIO mice were treated with oligomeric compounds ISIS Numbers 327901 and 340927 targeting mir-143, ISIS Numbers 327892 and 340926 targeting mir-131/mir-9, ISIS Numbers 327878 and ISIS Number 345349 targeting mir-203, and ISIS Numbers 327889 and 340925, targeting mir-23b. […] DEXA scans were also performed at weeks 0, 3 and 5 after treatment with the oligomeric compounds to assess the fat mass to lean mass ratio. The effects of target inhibition on levels of plasma glucose and insulin, liver transaminases, cholesterol and triglycerides, were also assessed weekly by tail bleed, and after the treatment period, mice were sacrificed and liver and kidney heart, as well as white adipose tissue (WAT) tissues collected. The mRNA expression levels of the Glut4, aP2, HSL and PPARγ marker genes are also assessed. […] Furthermore, some improvement in body composition (a reduction in body weight and fat mass) was observed.

ob/ob mice = test: ob/ob mice: plasma parameters, food consumption, marker gene mRNA; format: in vivo, mouse; settings: six week old ob/ob mice
Excerpt: Leptin is a hormone produced by fat cells that regulates appetite. Deficiencies in this hormone in both humans and non-human animals leads to obesity. ob/ob mice have a mutation in the leptin gene which results in obesity and hyperglycemia. As such, these mice are a useful model for the investigation of obesity and diabetes and treatments designed to treat these conditions. ob/ob mice have higher circulating levels of insulin and are less hyperglycemic than db/db mice, which harbor a mutation in the leptin receptor. In accordance with the present invention, the oligomeric compounds of the invention are tested in the ob/ob model of obesity and diabetes.
Seven-week old male C57B1/6J-Lep ob/ob mice (Jackson Laboratory, Bar Harbor, Me.) are fed a diet with a fat content of 10-15% and are subcutaneously injected with the oligomeric compounds of the invention or a control compound at a dose of 25 mg/kg two times per week for 4 weeks. Saline-injected animals, leptin wildtype littermates (i.e. lean littermates) and ob/ob mice fed a standard rodent diet serve as controls. After the treatment period, mice are sacrificed and target levels are evaluated in liver, brown adipose tissue (BAT) and white adipose tissue (WAT). RNA isolation and target RNA expression level quantitation are performed as described by other examples herein.
To assess the physiological effects resulting from modulation of target, the ob/ob mice are evaluated at the end of the treatment period for serum lipids, serum free fatty acids, serum cholesterol (CHOL), liver triglycerides, fat tissue triglycerides and liver enzyme levels. Hepatic steatosis, or clearing of lipids from the liver, is assessed by measuring the liver triglyceride content. Hepatic steatosis is assessed by routine histological analysis of frozen liver tissue sections stained with oil red O stain, which is commonly used to visualize lipid deposits, and counterstained with hematoxylin and eosin, to visualize nuclei and cytoplasm, respectively.
The effects of target modulation on glucose and insulin metabolism are evaluated in the ob/ob mice treated with the oligomeric compounds of the invention. Plasma glucose is measured at the start of the treatment and after 2 weeks and 4 weeks of treatment. Plasma insulin is similarly measured at the beginning of the treatment, and following at 2 weeks and at 4 weeks of treatment. Glucose and insulin tolerance tests are also administered in fed and fasted mice. Mice receive intraperitoneal injections of either glucose or insulin, and the blood glucose and insulin levels are measured before the insulin or glucose challenge and at 15, 20 or 30 minute intervals for up to 3 hours.
The ob/ob mice that receive treatment are evaluated at the end of the treatment period for the effects of target modulation on the expression of genes that participate in lipid metabolism, cholesterol biosynthesis, fatty acid oxidation, fatty acid storage, gluconeogenesis and glucose metabolism. These genes include, but are not limited to, HMG-CoA reductase, acetyl-CoA carboxylase 1 and acetyl-CoA carboxylase 2, camitine palmitoyltransferase I and glycogen phosphorylase, glucose-6-phosphatase and phosphoenolpyruvate carboxykinase 1, lipoprotein lipase and hormone sensitive lipase. mRNA levels in liver and white and brown adipose tissue are quantitated by real-time PCR as described in other examples herein, employing primer/probe sets that are generated using published sequences of each gene of interest.
As described herein, leptin-deficient (ob/ob) mice, leptin receptor-deficient (db/db) mice and diet-induced obesity (DIO) mice are used to model obesity and diabetes. In accordance with the present invention, oligomeric compounds targeting mir-143, mir-131 (also known as mir-9) and mir-203 were tested in the ob/ob and db/db models. […]

[4] = 25 mg/kg twice weekly for four weeks

Sequence | decrease in in vivo expression levels of the mir-23b miRNA (mir-23b miRNA [1]) [%] | expression of the luciferase reporter, pGL3-mir-23b sensor (mir-23b miRNA [2]) | expression levels of markers of adipocyte differentiation (TG, leptin, aP2, HSL, Glut4, PPARγ) [3] | liver toxicity (plasma transaminase levels, weekly) (DIO mice; 25 mg/kg s.c. twice weekly) | increase in the liver transaminase AST (DIO mice; 25 mg/kg s.c. twice weekly) | insulin levels (DIO mice; two and four week time points, vs saline) | Triglycerides (ob/ob mice; [4]) | plasma glucose levels in the fed state (ob/ob mice; [4]) | plasma transaminases (ob/ob mice; weeks two or four)
GTGGTAATCCCTGGCAATGTGAT [ISIS 327889] (chemistry not given here) [uniform 2′-MOE PS; targets mir-23b] | ~64 | de-repressed the expression of the luciferase reporter | significantly reduce the expression levels of 5 of 6 markers of adipocyte differentiation; also recorded: reduce the expression of several hallmark genes of adipocyte differentiation | did not appear to cause liver toxicity | – | – | – | – | –
GTGGTAATCCCTGGCAATGTGAT [ISIS 340925] (chemistry not given here) [2′-MOE 5-10-8 gapmer; targets mir-23b] | 41 | – | – | – | approximately 2 fold | effective at reducing insulin levels | decrease in triglycerides in the fourth week | reductions in plasma glucose levels in the fed state at weeks two and four | did not exhibit an increase in plasma transaminases
